Results taken from patent publication US4018753A, “Polypeptides with ACTH-like activities” (Shionogi & Co., Ltd., priority 1974, dated 1977).
Square brackets hold non-standard residues; d marks the D form. Ends that are not written are not given here. Peptide text beside a SMILES is read from it. Aib = CC(C)(N)C(=O)O

Assays:
hypophysectomized rat [1] = test: Adrenal-stimulating activity by intravenous administration to hypophysectomized rat; assay type: in vivo; conditions: relative potency; USP Corticotropin Reference Standard; injected into femoral vein, blood sample 30 minutes after injection, 11-hydroxycorticosteroids
Description: (§1) Assays for adrenal-stimulating activity of the present polypeptides were carried out according to the different methods, comparing with that of native corticotropin (ACTH), [Gly^1 ]-ACTH(1-18)-NH2 [Bull.Chem.Soc.Japan 43 196 (1970)], [Aib^1 ]-ACTH(1-18)-NH2 [ibid., 43, 3873 (1970)], [Aib^1,Lys^17,18 ]-ACTH(1-18)-NH2, Cortrosyn^R (N.V.Organon, Netherland) and Cortrosyn-Z (N.V.Organon, Netherland). The adrenal-stimulating activity by the intravenous administration to hypophysectomized rat was determined in such a manner that a peptide preparation was injected into the femoral vein and a blood sample was collected from the abdominal aorta 30 minutes after the injection. The adrenal-stimulating activity by the intramuscular administration to hypophysectomized rat was also determined, where a peptide preparation was injected into the thigh muscle and a blood sample was collected from the abdominal aorta 30 minutes after injection. Throughout the experiment, the USP Corticotropin Reference Standard was used as a standard and the production of 11-hydroxycorticosteroids was determined by the fluorophotometric method of Peterson [J.Biol. Chem. 225 25 (1957)]. For each assay method several determinations were usually performed and the data obtained independently were submitted to the statistical treatment by Sheps and Moore procedure [J.Pharmacol. Extl. Therap. 128, 99 (1960)].

melanocyte = test: In vivo melanocyte-stimulating activity; conditions: relative potency
Description: The in vivo melanocyte-stimulating activity was determined according to the method described in Endocrinol. Japonica 19, 383 (1972).

rats = test: Effect on adrenal growth and thymus involution; assay type: in vivo; parameters: key: *: The effects on adrenal growth and thymus involution are very weak; conditions: i.m. 20 μg and 100 μg/rat/day for 2 days
Description: The effect on adrenal growth and thymus involution was determined in the following manner: peptides were intramuscularly injected into rats at a dose of 20 μg and 100 μg/rat/day respectively for 2 days. The rats were then submitted to autopsy 24 hours after the last injection, and then the adrenal and thymus were weighed respectively.

hypophysectomized rat [2] = test: Adrenal-stimulating activity by intramuscular administration to hypophysectomized rat; assay type: in vivo; conditions: relative potency; USP Corticotropin Reference Standard; injected into thigh muscle, blood sample 30 minutes after injection, 11-hydroxycorticosteroids
Description: as §1

[3] = relative potency, autopsy 24 hours after last injection, adrenal and thymus weighed

Compound | Adrenal-stimulating activity i.v. (hypophysectomized rat [1]) | Melanocyte-stimulating activity b) in vivo (melanocyte) | effect on adrenal growth and thymus involution a) (rats; [3]) | Adrenal-stimulating activity i.m. (hypophysectomized rat [2]) | effect on adrenal growth and thymus involution a) (rats; symbol * in the table)
CSCC[C@H](NC(=O)[C@H](CO)NC(=O)[C@H](Cc1ccc(O)cc1)NC(=O)C(C)(C)N)C(=O)N[C@@H](CCC(=O)O)C(=O)N[C@@H](Cc1c[nH]cn1)C(=O)N[C@@H](Cc1ccccc1)C(=O)N[C@@H](CCCNC(=N)N)C(=O)N[C@@H](Cc1c[nH]c2ccccc12)C(=O)NCC(=O)N[C@@H](CCCCN)C(=O)N1CCC[C@H]1C(=O)N[C@H](C(=O)NCC(=O)N[C@@H](CCCCN)C(=O)N[C@@H](CCCCN)C(=O)N[C@@H](CCCCN)C(=O)N[C@@H](CCCCN)C(N)=O)C(C)C [[Aib^1,Lys^17,18]ACTH(1-18)NH2, [Aib^1,Lys^17,18]-ACTH(1-18)-NH2] (H-[Aib]YSMEHFRWGKPVGKKKK-NH2) | 9.3 | 0.82 | 0.40 | 9.4 | –
CSCC[C@H](NC(=O)[C@H](CO)NC(=O)[C@H](Cc1ccc(O)cc1)NC(=O)C(C)(C)N)C(=O)N[C@@H](CCC(=O)O)C(=O)N[C@@H](Cc1c[nH]cn1)C(=O)N[C@@H](Cc1ccccc1)C(=O)N[C@@H](CCCNC(=N)N)C(=O)N[C@@H](Cc1c[nH]c2ccccc12)C(=O)NCC(=O)N[C@@H](CCCCN)C(=O)N1CCC[C@H]1C(=O)N[C@H](C(=O)NCC(=O)N[C@@H](CCCCN)C(=O)N[C@@H](CCCCN)C(=O)N[C@@H](CCCNC(=N)N)C(=O)N[C@@H](CCCNC(=N)N)C(N)=O)C(C)C [[Aib^1]ACTH(1-18)NH2, [Aib^1]-ACTH(1-18)-NH2] (H-[Aib]YSMEHFRWGKPVGKKRR-NH2) | 4.1 | 1.00 | 0.12 | 9.9 | –
GYSMEHFRWGKPVGKKRR-NH2 [[Gly^1]ACTH(1-18)NH2, [Gly^1]-ACTH(1-18)-NH2] | 1.0 | 0.11 | very weak | 1.0 | *
Native ACTH: native corticotropin (ACTH) (SYSMEHFRWGKPVGKKRRPVKVYPNGAEDESAEAFPLEF; Corticotropin; UniProt P01189 138-176, looked up) | 1.0 | – | very weak | 4.0 | *
